From patent publication US5801178A, “Aniline derivative having polyunsaturated fatty acid residue and use thereof” (Nippon Shoji Kaish Ltd., priority 1995, dated 1998)

How the values were obtained:
[1] = target: T1, ACAT derived from human macrophage (Homo sapiens, UniProt P35610); experiment: Inhibitory activity against ACAT derived from human macrophage (microsomes of TPA-differentiated U937 cells); type: biochemical; conditions: for Selectivity: Table 1, rat liver ACAT IC50 / human macrophage ACAT IC50; for IC50: human macrophage (U937/TPA) microsome, pH 7.4, 37° C., 30 minutes
T1 construct: Using, as an enzyme source, microsomal fractions prepared in the manner described below under Preparation of Microsome from U937 cells; endogenous in cells; host or cells: U937 cells differentiated with TPA, microsomal fraction
T1 sequence (P35610 1-550): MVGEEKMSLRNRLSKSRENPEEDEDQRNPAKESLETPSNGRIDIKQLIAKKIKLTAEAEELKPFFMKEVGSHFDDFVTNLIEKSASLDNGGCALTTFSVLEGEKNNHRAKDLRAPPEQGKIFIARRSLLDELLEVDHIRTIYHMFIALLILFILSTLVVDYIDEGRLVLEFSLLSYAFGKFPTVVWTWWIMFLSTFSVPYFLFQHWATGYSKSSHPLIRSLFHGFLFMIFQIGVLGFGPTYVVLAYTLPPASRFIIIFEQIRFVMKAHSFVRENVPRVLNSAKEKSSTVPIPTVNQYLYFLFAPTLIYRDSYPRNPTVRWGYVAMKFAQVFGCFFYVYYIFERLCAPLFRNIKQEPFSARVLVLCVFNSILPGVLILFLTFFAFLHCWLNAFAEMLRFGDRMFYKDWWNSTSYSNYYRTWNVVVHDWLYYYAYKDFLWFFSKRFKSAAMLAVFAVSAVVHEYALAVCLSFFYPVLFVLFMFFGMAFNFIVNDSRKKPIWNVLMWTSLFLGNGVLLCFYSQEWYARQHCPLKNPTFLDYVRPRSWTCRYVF
Protocol: Inhibitory activity against ACAT derived from human macrophage
(§1) Using, as an enzyme source, microsomal fractions prepared in the manner described below under Preparation of Microsome from U937 cells [human monocyte-derived cells known to differentiate into macrophages by the addition of TPA (12-O-tetradecanoylphorbol 13-acetate)] differentiated with TPA, the inhibitory activity against ACAT in the microsome fractions was determined as in the following. The compound of the present invention was dissolved in dimethyl sulfoxide and used as a sample solution. [1-^14 C] […] Ethanol (1 ml) was added to stop the reaction, and n-hexane (4.5 ml) was added. The reaction mixture was centrifuged at 2,000 rpm for 2 minutes and the upper n-hexane layer was separated and recovered, whereby cholesterol oleate (reaction product) was extracted. n-Hexane was evaporated with a nitrogen gas and the residue was re-dissolved in n-hexane (50 μl), which was used as a sample for thin-layer chromatography. […] After developing, the spot of cholesterol oleate was colored with iodine. The spot was cut out and dissolved in a xylene scintillator (Aquasol-2, Daiichi Pure Chemicals Co., Ltd.). The amount of cholesterol oleate was determined with a liquid scintillation counter.
The cells thus scraped and the culture solution were centrifuged at 3,000 rpm for 5 minutes, and the cell fractions obtained as precipitate were once freezed at -70° C. and preserved. The cells preserved at -70° C. were thawed and homogenized at 4° C. in a Teflon homogenizer. The homogenate was centrifuged at 12,000 g for 15 minutes. The precipitate fractions containing nuclea and mitochondria were removed and the obtained supernatant was further centrifuged at 100,000 g for 60 minutes. The supernatant was discarded, and the obtained precipitate fractions were suspended in 150 mM potassium phosphate buffer (pH 7.4) and used as a microsomal fraction.

[2] = system: ACAT derived from rat liver; experiment: Inhibitory activity against ACAT derived from rat liver microsome; type: biochemical; conditions: pH 7.4, 37° C., 30 minutes
Protocol: Inhibitory activity against ACAT derived from rat liver microsome
as §1, with “source, the” for “source,”, “prepared from rat liver” for “prepared”, “of Microsome,” for “of Microsome from U937 cells [human monocyte-derived cells known to differentiate into macrophages by the addition of TPA (12-O-tetradecanoylphorbol 13-acetate)] differentiated with TPA,”, “re-dissolved dissolved” for “re-dissolved”, “determined using” for “determined with”
The liver was removed from a fasted rat and thoroughly perfused with 0.25M sucrose solution. The liver was weighed, minced with scissors or razor and placed in a Teflon homogenizer. The liver was homogenized with 9 volumes [9 ml per g (wet weight) of liver] of 0.25M sucrose solution or 50 mM Tris-HCl buffer (pH 7.5) containing 0.25M sucrose and 5 mM MgCl2. The homogenate was centrifuged at 8,000-10,000 g for 10-15 minutes. The obtained supernatant was centrifuged at 105,000 g for 60-90 minutes. The sediment obtained from this centrifugation was suspended in 150 mM potassium phosphate buffer (pH 7.4) to give a microsomal fraction.

[3] = Reduction of cholesterol in blood of cholesterol-loaded rats; type: in vivo, Male slc:SD (SPF) rats; conditions: serum total cholesterol; 90 mg/kg/day orally, five days; average of 8 rats; control taken as 100%
Description: Reduction of cholesterol in blood of rats
Male slc:SD (SPF) rats (4 weeks of age weighing 70-90 g, Japan SLC Inc.) were randomly divided into 8 per group and bred for 3 days on a normal diet (solid diet for test animals, MF, manufactured by Oriental Yeast CO., LTD.). Then, the aforementioned diet supplemented with 5% cholesterol, 10% olive oil and 0.5% cholic acid was freely fed for 10 days. During the last five days, the test compound (Compounds 3-6, 8, 11 and 12) suspended in 0.5% aqueous methylcellulose solution was forcibly administered orally once a day in a dose of 10 ml/kg which contains 90 mg/kg/day of the test compound (total dose of the test compound being 450 mg/kg). The rats were fasted for 16 hours after the final administration and etherized. The blood was taken from the abdominal aorta, and serum was separated by centrifugation to determine the total cholesterol content in the serum. The control group was administered with 0.5% aqueous methylcellulose solution instead of the test compound suspended in 0.5% aqueous methylcellulose solution.
* is an average of 8 rats per group based on the cholesterol content in
blood of control which was taken as 100%.

[4] = Acute toxicity, oral, mice; type: in vivo, Male slc:ICR mice
Protocol: Male slc:ICR mice (4 weeks of age, Japan SLC Inc.) were bred for 7 days on a normal diet (solid diet for test animals, Labo MR stock-SLC, manufactured by Japan SLC Inc.). Then, the mice were fasted for 16 hours and divided into 5 per group. The mice were forcibly administered orally with the test compound (Compounds 4, 5 and 9-12) dissolved in corn oil. The mice were further bred on a normal diet for 14 days to observe acute toxicity.

| SMILES | Selectivity [1] | IC50 [1] [µM] | IC50 [2] [µM] | Reduction of cholesterol in cholesterol-loaded rats, %* [3] [%] | minimum lethal dose ([4]; mouse, in vivo, po, 20160 min) | minimum lethal dose ([4]; single oral administration in corn oil, mice, 14 days observation) |
| --- | --- | --- | --- | --- | --- | --- |
| CCC=CCC=CCC=CCC=CCC=CCCCC(=O)Nc1c(F)cc(F)cc1F [Compound 3, N-(2,4,6-trifluorophenyl)-5,8,11,14,17-eicosapentaenamide] | > 1852 | 0.27 | > 500 | 71 |  |  |
| CCC=CCC=CCC=CCC=CCC=CCC=CCCC(=O)Nc1c(F)cc(F)cc1F [Compound 4, N-(2,4,6-trifluorophenyl)-4,7,10,13,16,19-docosahexaenamide] | > 806 | 0.62 | > 500 | 59 | ≥ 2,000 mg/kg |  |
| CCC=CCC=CCC=CCC=CCC=CCCCC(=O)Nc1c(C)cc(C)cc1C [Compound 5, N-(2,4,6-trimethylphenyl)-5,8,11,14,17-eicosapentaenamide] | 47.9 | 0.9 | 43.1 | 57 |  | ≥ 2,000 mg/kg |
| CCC=CCC=CCC=CCC=CCC=CCC=CCCC(=O)Nc1c(C)cc(C)cc1C [Compound 6, N-(2,4,6-trimethylphenyl)-4,7,10,13,16,19-docosahexaenamide] | > 3333 | 0.15 | > 500 | 68 |  |  |
| CCC=CCC=CCC=CCC=CCC=CCC=CCCC(=O)Nc1c(C)cccc1C [Compound 8, N-(2,6-dimethylphenyl)-4,7,10,13,16,19-docosahexaenamide] | 264 | 0.28 | 73.9 | 77 |  |  |
| CCC=CCC=CCC=CCC=CCC=CCCCC(=O)Nc1c(C(C)C)cccc1C(C)C [Compound 11, N-(2,6-diisopropylphenyl)-5,8,11,14,17-eicosapentaenamide] | 247 | 0.0097 | 2.4 | 78 |  |  |
